Patent US20090054392A1, “NAPHTHYLPYRIMIDINE, NAPHTHYLPYRAZINE AND NAPHTHYLPYRIDAZINE ANALOGS AND THEIR USE AS AGONISTS OF THE WNT-BETA-CATENIN CELLULAR MESSAGING SYSTEM” (Wyeth, priority 2007, published 2009)

Tested on: Dkk1-LRP5-TCF-Luciferase
Test: Functional Dkk1-LRP5-TCF-Luciferase Assay in U2OS Cells
Conditions: for fold induction at 2 µM / fold induction at 20 µM / EC50: Homo sapiens, U2OS; for fold induction at 2 µM: read-out: B = TCF ACTIVITY/DMSO CONTROL Fold induction @ 2.0 uM, 2.0 uM compound; for fold induction at 20 µM: read-out: C = TCF ACTIVITY/DMSO CONTROL Fold induction @ 20.0 uM, 20.0 uM compound; for A = MAX FOLD Induction/DMSO CONTROL: maximum fold induction over DMSO control

Row | SMILES | fold induction at 2 µM | fold induction at 20 µM | EC50 | A = MAX FOLD Induction/DMSO CONTROL
1 | NCCC1CN(c2nccc(-c3ccc4ccccc4c3)n2)C1 [2-[1-(4-naphthalen-2-ylpyrimidin-2-yl)azetidin-3-yl]ethanamine] | 2.4 |  |  | 
2 | COC(=O)C(NC(=O)OC(C)(C)C)C1CCN(c2nccc(-c3ccc4ccccc4c3)n2)CC1 (stereo not shown) [methyl [(tert-butoxycarbonyl)amino]{1-[4-(2-naphthyl)pyrimidin-2-yl]piperidin-4-yl}acetate] |  | 0.71 |  | 
3 | OC1CCCN([C@H]2CCN(c3nccc(-c4ccc5ccccc5c4)n3)C2)C1 (stereo partly drawn) [1-{(3S)-1-[4-(2-naphthyl)pyrimidin-2-yl]pyrrolidin-3-yl}piperidin-3-ol] | 2.48 | 0.13 | 3.55 µM | 6.735 fold
4 | N#Cc1ccc(C(=O)N[C@@H]2CCN(c3nccc(-c4ccc5ccccc5c4)n3)C2)cc1 [4-cyano-N-{(3R)-1-[4-(2-naphthyl)pyrimidin-2-yl]pyrrolidin-3-yl}benzamide] |  | 1.29 |  | 
5 | O=CN1CC[C@@H](Nc2nccc(-c3ccc4ccccc4c3)n2)C1 [(3R)-3-{[4-(2-naphthyl)pyrimidin-2-yl]amino}pyrrolidine-1-carbaldehyde] | 1.03 | 2.69 | 7.17 µM | 5.305 fold
6 | O[C@H]1CCCN([C@@H]2CCN(c3nccc(-c4ccc5ccccc5c4)n3)C2)C1 [(3S)-1-{(3R)-1-[4-(2-naphthyl)pyrimidin-2-yl]pyrrolidin-3-yl}piperidin-3-ol] |  |  | 2.4 µM | 
7 | CN(C)S(=O)(=O)N1CCCN(c2nccc(-c3ccc4ccccc4c3)n2)CC1 [N,N-dimethyl-4-[4-(2-naphthyl)pyrimidin-2-yl]-1,4-diazepane-1-sulfonamide] |  | 0.63 |  | 
8 | CN(C)CC1CCN(c2nccc(-c3ccc4ccccc4c3)n2)CC1 [N,N-dimethyl-1-{1-[4-(2-naphthyl)pyrimidin-2-yl]piperidin-4-yl}methanamine] | 1.85 |  |  | 
9 | NC(=O)N1CC[C@@H](Nc2nccc(-c3ccc4ccccc4c3)n2)C1 [(3R)-3-{[4-(2-naphthyl)pyrimidin-2-yl]amino}pyrrolidine-1-carboxamide] |  | 2.42 | 8.71 µM | 5.295 fold
10 | CCOC(=O)N[C@@H]1CCN(c2nccc(-c3ccc4ccccc4c3)n2)C1 [ethyl {(3R)-1-[4-(2-naphthyl)pyrimidin-2-yl]pyrrolidin-3-yl}carbamate] | 1.21 | 0.69 |  | 
11 | OC1CCN([C@@H]2CCN(c3nccc(-c4ccc5ccccc5c4)n3)C2)CC1 [1-{(3R)-1-[4-(2-naphthyl)pyrimidin-2-yl]pyrrolidin-3-yl}piperidin-4-ol] | 1.44 | 0.14 |  | 
12 | CCNC(=O)NC1CCCN(c2nccc(-c3ccc4ccccc4c3)n2)CC1 (stereo not shown) [N-ethyl-N′-{1-[4-(2-naphthyl)pyrimidin-2-yl]azepan-4-yl}urea] | 2.33 | 2.56 |  | 1.320 fold
13 | CCNC(=O)NCC1CCN(c2nccc(-c3ccc4ccccc4c3)n2)CC1 [N-ethyl-N′-({1-[4-(2-naphthyl)pyrimidin-2-yl]piperidin-4-yl}methyl)urea] | 1.7 | 1.34 |  | 
14 | CS(=O)(=O)OCCC1CCN(c2nccc(-c3ccc4ccccc4c3)n2)CC1 [2-{1-[4-(2-naphthyl)pyrimidin-2-yl]piperidin-4-yl}ethyl methanesulfonate] | 1.02 | 1.18 |  | 
15 | c1ccc2cc(-c3ccnc(N[C@@H]4CCNC4)n3)ccc2c1 [4-(2-naphthyl)-N-[(3R)-pyrrolidin-3-yl]pyrimidin-2-amine] | 1.76 | 3.98 | 9.23 µM | 6.560 fold
16 | OCC1CCCN([C@H]2CCN(c3nccc(-c4ccc5ccccc5c4)n3)C2)C1 (stereo partly drawn) [(1-{(3S)-1-[4-(2-naphthyl)pyrimidin-2-yl]pyrrolidin-3-yl}piperidin-3-yl)methanol] | 1.88 | 0.01 |  | 
17 | CCNCC1CCN(c2nccc(-c3ccc4ccccc4c3)n2)CC1 [N-({1-[4-(2-naphthyl)pyrimidin-2-yl]piperidin-4-yl}methyl)ethanamine] | 1.33 | 0.01 | 3.3 µM | 4.200 fold
18 | c1ccc2cc(-c3ccnc(NC4CCCC4)n3)ccc2c1 [N-cyclopentyl-4-(2-naphthyl)pyrimidin-2-amine] | 1.95 | 0.83 |  | 
19 | Cc1ccc(S(=O)(=O)N2CC[C@@H](Nc3nccc(-c4ccc5ccccc5c4)n3)C2)cc1 [N-{(3R)-1-[(4-methylphenyl)sulfonyl]pyrrolidin-3-yl}-4-(2-naphthyl)pyrimidin-2-amine] |  | 1.58 |  | 
20 | c1ccc2cc(-c3ccnc(N4CCC(CN5CCCCCC5)CC4)n3)ccc2c1 [1-({1-[4-(2-naphthyl)pyrimidin-2-yl]piperidin-4-yl}methyl)azepane] | 1.45 |  |  | 

Row | SMILES | fold induction at 2 µM | fold induction at 20 µM | EC50 | A = MAX FOLD Induction/DMSO CONTROL
21 | CC(C)(C)OC(=O)N[C@H](CO)C1CCN(c2nccc(-c3ccc4ccccc4c3)n2)CC1 [tert-butyl ((1S)-2-hydroxy-1-{1-[4-(2-naphthyl)pyrimidin-2-yl]piperidin-4-yl}ethyl)carbamate] | 1.22 | 0.44 |  | 
22 | O=C(NC1CCCN(c2nccc(-c3ccc4ccccc4c3)n2)CC1)C(F)(F)F (stereo not shown) [2,2,2-trifluoro-N-{1-[4-(2-naphthyl)pyrimidin-2-yl]azepan-4-yl}acetamide] | 1.1 | 1.87 |  | 
23 | NCC1CCN(c2cc(-c3ccc4ccccc4c3)cnn2)CC1 [1-{1-[5-(2-naphthyl)pyridazin-3-yl]piperidin-4-yl}methanamine] | 1.58 | 0.4 |  | 
24 | c1ccc2cc(-c3ccnc(N4CCC(CN5CCOCC5)C4)n3)ccc2c1 (stereo not shown) [4-({1-[4-(2-naphthyl)pyrimidin-2-yl]pyrrolidin-3-yl}methyl)morpholine] | 1.07 | 3.1 | 4.8 µM | 2.990 fold
25 | CC(C)(C)OC(=O)N1CCN(C[C@@H]2CCN(c3nccc(-c4ccc5ccccc5c4)n3)C2)CC1 [tert-butyl 4-({(3S)-1-[4-(2-naphthyl)pyrimidin-2-yl]pyrrolidin-3-yl}methyl)piperazine-1-carboxylate] | 1.16 | 0.85 |  | 
26 | CN(c1nccc(-c2ccc3ccccc3c2)n1)[C@H]1CC[C@H](CN)CC1 [N-[trans-4-(aminomethyl)cyclohexyl]-N-methyl-4-(2-naphthyl)pyrimidin-2-amine] | 1.4 |  |  | 
27 | CC(C)N(C)CCN(C)[C@@H]1CCN(c2nccc(-c3ccc4ccccc4c3)n2)C1 [N-isopropyl-N,N′-dimethyl-N′-{(3R)-1-[4-(2-naphthyl)pyrimidin-2-yl]pyrrolidin-3-yl}ethane-1,2-diamine] | 2.2 |  |  | 
28 | COc1ccc2cc(-c3ccnc(N4CCC(CN)CC4)n3)ccc2c1 [1-{1-[4-(6-methoxy-2-naphthyl)pyrimidin-2-yl]piperidin-4-yl}methanamine] | 2.27 |  | 1.06 µM | 3.233 fold
29 | c1ccc2c(c1)CCN(c1nccc(-c3ccc4ccccc4c3)n1)C2 [2-[4-(2-naphthyl)pyrimidin-2-yl]-1,2,3,4-tetrahydroisoquinoline] | 0.95 | 1.38 |  | 
30 | O=C(c1ccccc1)N1CC[C@H](Nc2nccc(-c3ccc4ccccc4c3)n2)C1 [N-[(3S)-1-benzoylpyrrolidin-3-yl]-4-(2-naphthyl)pyrimidin-2-amine] | 1.23 |  |  | 
31 | COC(=O)N1CCC(N(C)c2nccc(-c3ccc4ccccc4c3)n2)CC1 [methyl 4-{methyl[4-(2-naphthyl)pyrimidin-2-yl]amino}piperidine-1-carboxylate] | 1.43 | 1.47 |  | 
32 | O=C(NCC[C@@H]1CCCN1c1nccc(-c2ccc3ccccc3c2)n1)C(F)(F)F [2,2,2-trifluoro-N-(2-{(2S)-1-[4-(2-naphthyl)pyrimidin-2-yl]pyrrolidin-2-yl}ethyl)acetamide] | 1.44 | 0.89 |  | 
33 | COC(=O)C1CCN(c2nccc(-c3ccc4ccccc4c3)n2)CC1 [methyl 1-[4-(2-naphthyl)pyrimidin-2-yl]piperidine-4-carboxylate] |  | 1.39 |  | 
34 | COC(=O)NCC1CN(c2nccc(-c3ccc4ccccc4c3)n2)C1 [methyl ({1-[4-(2-naphthyl)pyrimidin-2-yl]azetidin-3-yl}methyl)carbamate] | 1.28 | 1.08 |  | 
35 | c1ccc(CCNc2nccc(-c3ccc4ccccc4c3)n2)cc1 [4-(2-naphthyl)-N-(2-phenylethyl)pyrimidin-2-amine] | 1.91 |  |  | 
36 | O=C(N1CCCC1)N1CCC(CNc2nccc(-c3ccc4ccccc4c3)n2)CC1 [4-(2-naphthyl)-N-{[1-(pyrrolidin-1-ylcarbonyl)piperidin-4-yl]methyl}pyrimidin-2-amine] | 1.08 | 0.907 |  | 
37 | CC(C)(C)N[C@@H]1CCN(c2nccc(-c3ccc4ccccc4c3)n2)C1 [(3R)—N-(tert-butyl)-1-[4-(2-naphthyl)pyrimidin-2-yl]pyrrolidin-3-amine] | 1.56 | 0.29 |  | 
38 | CN(C)C(=O)N1CCCN(c2nccc(-c3ccc4ccccc4c3)n2)CC1 [N,N-dimethyl-4-[4-(2-naphthyl)pyrimidin-2-yl]-1,4-diazepane-1-carboxamide] | 1.2 | 2.26 |  | 1.520 fold
39 | OCC1CCN([C@H]2CCN(c3nccc(-c4ccc5ccccc5c4)n3)C2)CC1 [(1-{(3S)-1-[4-(2-naphthyl)pyrimidin-2-yl]pyrrolidin-3-yl}piperidin-4-yl)methanol] | 1.72 | 0.94 |  | 
